Patent US9006451B1, “2-anilinonicotinyl based chalcones useful as potential anticancer agents and process for preparation thereof” (Council of Scientific and Industrial Research, priority 2013, dated 2015)

Assays:
[1] = system: A549/ATCC; assay: NCI 60 human tumor cell line screen (SRB): A549/ATCC; type: cell-based; conditions: Non-small cell lung, 48 hours, read-out: GI50 values (μM conc.)
Procedure: (§1) The in vitro anticancer activity studies for these chalcone analogues were carried out at the National Cancer Institute, USA.
(§2) The chalcone compounds have been tested at NCI, USA, against sixty human tumor cell lines derived from nine cancer types (leukemia, non-small cell lung cancer, colon cancer, CNS cancer, melanoma cancer, ovarian cancer, renal cancer, prostate cancer and breast cancer). For these compounds results are expressed as growth inhibition (GI50) values as per NCI protocol.
(§3) We describe here the development and implementation of a pilot-scale, in vitro, anticancer drug screen utilizing a panel of 60 human tumor cell lines organized into subpanels representing leukemia, melanoma, and cancers of the lung, colon, kidney, ovary, and central nervous system. The ultimate goal of this disease-oriented screen is to facilitate the discovery of new compounds with potential cell line-specific and/or subpanel-specific antitumor activity. In the current screening protocol, each cell line is inoculated onto microtiter plates, then preincubated for 28 hours. Subsequently, test agents are added in five 10-fold dilutions and the culture is incubated for an additional 48 hours. For each test agent, a dose-response profile is generated. End-point determinations of the cell viability or cell growth are performed by in situ fixation of cells, followed by staining with a protein-binding dye, sulforhodamine B (SRB). The SRB binds to the basic amino acids of cellular macromolecules; the solubilized stain is measured spectrophotometrically to determine relative cell growth or viability in treated and untreated cells.

[2] = system: HL-60(TB); assay: NCI 60 human tumor cell line screen (SRB): HL-60(TB); type: cell-based; conditions: Leukemia, 48 hours, read-out: GI50 values (μM conc.)
Procedure: as §1, §2, §3

[3] = system: K-562; assay: NCI 60 human tumor cell line screen (SRB): K-562; type: cell-based; conditions: K562, K-562, Leukemia, 48 hours, read-out: GI50 values (μM conc.)
Procedure: as §1, §2
as §3, with “For each test agent, a dose-response profile is generated. End-point determinations of the cell viability or cell growth are performed by in situ fixation of cells, followed by staining with a protein-binding dye, sulforhodamine B (SRB).” left out

SMILES | GI50 [1] [µM] | GI50 [2] [µM] | GI50 [3] [µM] | melting point [°C]
COc1cc(Nc2ncccc2/C=C/C(=O)c2cc(OC)c(OC)c(OC)c2)cc(OC)c1OC [6v, (E)-1-(3,4,5-Trimethoxyphenyl)-3-(2-(3,4,5-trimethoxyphenylamino)pyridin-3-yl)prop-2-en-1-one] | 4.21 | 8 | – | –
COc1cc(C(=O)/C=C/c2cccnc2Nc2ccc(Cl)cc2)cc(OC)c1OC [6ax, (E)-3-(2-(4-Chlorophenylamino)pyridin-3-yl)-1-(3,4,5-trimethoxyphenyl)prop-2-en-1-one] | 1.63 | 1.59 | – | –
COc1ccc(Nc2ncccc2/C=C/C(=O)c2cc(OC)c(OC)c(OC)c2)cc1 [6h, (E)-3-(2-(4-Methoxyphenylamino)pyridin-3-yl)-1-(3,4,5-trimethoxyphenyl)prop-2-en-1-one] | – | – | 0.78 | –
COc1ccc(C(=O)/C=C/c2cccnc2Nc2cc(OC)c(OC)c(OC)c2)cc1 [6z, (E)-1-(4-Methoxyphenyl)-3-(2-(3,4,5-trimethoxyphenylamino)pyridin-3-yl)prop-2-en-1-one] | 2.15 | 1.27 | – | –
COc1cc(C(=O)/C=C/c2cccnc2Nc2ccccc2)cc(OC)c1OC [6a, (E)-3-(2-(Phenylamino)pyridin-3-yl)-1-(3,4,5-trimethoxyphenyl)prop-2-en-1-one] | 1.3 | 1.52 | – | 125 to 128
COc1cc(/C=C/C(=O)c2cccnc2Nc2ccc(F)cc2)cc(OC)c1OC [7f, (E)-1-(2-(4-Fluorophenylamino)pyridin-3-yl)-3-(3,4,5-trimethoxyphenyl)prop-2-en-1-one] | 2.66 | 2.4 | – | –
